Source: patent US10966996B2, “Glechoma longitube extract, preparation method for same, and use thereof in sugar reduction, weight loss, and lipid reduction” (SHANGHAI INSTITUTE OF MATERIA MEDICA CHINESE ACADEMY OF …, priority 2014, dated 2021)

How the values were obtained:
[1] = molecular target: T1, DDP4 enzyme (Homo sapiens, UniProt P27487); assay: in vitro inhibiting activity against DDP4 enzyme (Caco-2 cell lysis solution, H-Gly-Pro-AMC substrate); format: biochemical; conditions: for inhibition rate against DDP4: 100 μM; for inhibition at 100 µM: read-out: inhibition rate against DDP4
T1 construct: cell lysis solution of human colon cancer cell line Caco-2 as DDP4 enzyme source; endogenous in cells; host or cells: Caco-2 (human colon cancer cell line) lysate
T1 sequence (P27487 whole entry): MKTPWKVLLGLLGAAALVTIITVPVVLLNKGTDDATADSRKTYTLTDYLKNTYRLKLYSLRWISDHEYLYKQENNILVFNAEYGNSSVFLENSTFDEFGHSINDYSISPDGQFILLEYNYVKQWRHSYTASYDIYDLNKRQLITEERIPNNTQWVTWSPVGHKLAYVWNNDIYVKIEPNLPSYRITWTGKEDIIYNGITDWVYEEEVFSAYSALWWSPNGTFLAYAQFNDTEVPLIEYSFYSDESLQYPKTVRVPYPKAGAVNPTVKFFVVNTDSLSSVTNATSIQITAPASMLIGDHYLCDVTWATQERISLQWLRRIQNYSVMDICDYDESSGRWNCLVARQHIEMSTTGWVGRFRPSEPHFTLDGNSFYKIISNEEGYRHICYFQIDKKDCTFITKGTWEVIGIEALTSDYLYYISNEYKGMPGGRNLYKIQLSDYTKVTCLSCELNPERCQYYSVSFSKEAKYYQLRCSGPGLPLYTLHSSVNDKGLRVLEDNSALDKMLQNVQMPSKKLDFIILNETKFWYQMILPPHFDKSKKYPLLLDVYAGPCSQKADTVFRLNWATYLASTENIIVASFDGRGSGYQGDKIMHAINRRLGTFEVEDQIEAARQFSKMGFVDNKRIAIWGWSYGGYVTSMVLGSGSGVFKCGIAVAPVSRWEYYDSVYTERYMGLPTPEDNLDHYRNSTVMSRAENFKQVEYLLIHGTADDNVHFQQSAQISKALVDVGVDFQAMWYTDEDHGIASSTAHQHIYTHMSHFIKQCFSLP
Method: Experimental method: (1) determination of inhibiting activity of Compound I and Compound II against DDP4 enzyme in vitro: cell lysis solution of human colon cancer cell line Caco-2 as DDP4 enzyme source (Thomas, L., et al, 2008, JPET). In a drug screening system of 96-well plate, 100 μL/well, the final concentration of H-Gly-Pro-AMC substrate (AnaSpec) was 244 μM, in which different concentrations of test compounds were added for incubation at 37° C. for 30 mins Fluorescence signals were detected at excitation wavelength 380 nm/emission wavelengths 460 nm Inhibition rates (%) on the enzyme of test samples against DDP4 were calculated according to fluorescence absorption value obtained by detection. The inhibition rate (%) is calculated according to the following formula: Inhibition rate (%)=(RFU blank−RFU compound)/(RFU blank−RFU negative control)*100%
RFU compound, RFU blank, and RFU negative control represent the difference of fluorescence values at 30 mins and at 0 min from a compound well, a blank well, and a negative control well free of enzyme; (2) effect of Compound I and Compound II for acute glucose tolerance in mice: the OGTT experimental method was the same to Example 5, the mice were divided into control group; calibration group; Compound I lower dose group (100 mg/kg); Compound I higher dose group (200 mg/kg); Compound II lower dose group (100 mg/kg); Compound II higher dose group (200 mg/kg); and positive drug group (Sitagliptin 10 mg/kg, Merck Company, USA).

[2] = molecular target: T2, hDGAT1 (Homo sapiens, UniProt O75907); assay: inhibitory activity against hDGAT1 (CPM fluorescence); format: biochemical; conditions: for inhibition at 10 µM: read-out: Inhibition rate (%) (10 μM) against hDGAT1; for inhibition at 50 µM: read-out: Inhibition rate (%) (50 μM) against hDGAT1
T2 construct: made in house; host or cells: insect cells
T2 sequence (O75907 1-488): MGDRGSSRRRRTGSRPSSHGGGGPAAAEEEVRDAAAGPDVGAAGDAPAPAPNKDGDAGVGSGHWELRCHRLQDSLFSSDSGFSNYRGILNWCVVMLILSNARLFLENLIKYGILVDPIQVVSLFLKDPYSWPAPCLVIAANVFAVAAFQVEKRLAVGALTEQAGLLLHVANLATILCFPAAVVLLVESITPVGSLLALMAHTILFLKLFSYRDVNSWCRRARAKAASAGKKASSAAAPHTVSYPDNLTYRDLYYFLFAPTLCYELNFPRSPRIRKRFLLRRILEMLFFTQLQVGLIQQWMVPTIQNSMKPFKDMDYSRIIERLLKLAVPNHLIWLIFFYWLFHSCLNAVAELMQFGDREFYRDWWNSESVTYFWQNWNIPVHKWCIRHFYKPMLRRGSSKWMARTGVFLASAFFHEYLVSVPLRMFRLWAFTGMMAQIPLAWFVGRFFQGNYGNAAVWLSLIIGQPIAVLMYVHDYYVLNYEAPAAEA
Method: Experimental method: (1) the effect of the extract of Glechoma longituba (Nakai) Kupr., LQC-H-1, on serum triglyceride level was evaluated in acute hypertriglyceridemic mouse model; 6-week old male C57BL/KsJ mice (Shanghai Slac Laboratory Animal Company), 8 for each group, weight of 20±2 g, were fed according to SPF grade operation procedure and fasted overnight for 16 hours prior to experiment. Compounds of different concentrations were intragastric administrated to each administration group of mice, respectively. Equal volume of water was given to control group and blank group of mice. 30 mins later, 2 g/kg olive oil was intragastric administrated to administration group and control group of mice, while equal volume of water was given to blank group of mice. 2 hours later, blood was collected from orbital vein of each group of mice for the separation of serum, and concentration of triglyceride in the serum was measured; (2) inhibitory activity of the individual compounds separated from the extract of Glechoma longituba (Nakai) Kupr., LQC-H-1, against diacylglycerol acyltransferase (DGAT): human derived DGAT1 obtained by expression and purification with insect cells were pre-incubated together with the compounds, substrate diacylglycerol was added to initiate the reaction in the presence of coenzyme A, fluorescence signal generated by the combination of produced sulfydryl and CPM was measured, and the inhibitory activity of the compound against DGAT was calculated according to the following formula: Inhibition rate %=(OD blank−OD compound)/(OD blank−OD negative control)*100%
OD compound, OD blank, and OD negative control represented the fluorescence values from a compound well, a blank well, and a negative control well free of DGAT1 enzyme, and the concentrations of the compounds when the enzyme activity inhibition rate (%) reached 50% were set as IC50 value; (3) inhibitory activity of the individual compounds separated from the extract of Glechoma longituba (Nakai) Kupr., LQC-H-1, against pancrelipase: substrate p-Nitrophenyl acetate (Sigma, USA) was formulated to 1.35 mM with phosphate buffer (25 mM, pH 6.8); porcine pancrelipase (Sigma) was formulated to 10 mg/ml with phosphate buffer; brominated eneyne compounds were formulated to solutions of different concentrations with phosphate buffer. Then, 50 μl of 1.35 mM p-Nitrophenyl acetate (Sigma, USA) solution and 10 μl of test compounds of different concentrations were sequentially added into a 96-well plate and pre-incubated at 37° C. for 5 mins. Finally, 50 μl of 10 mg/ml pancrelipase (EC 3.1.1.3, Sigma, USA) was added and mixed. The reaction proceeded at 37° C. for further 20 mins Absorbance of each well was measured at 492 nm. The inhibition rates (%) of the test samples against pancrelipase were calculated based on the absorbance at 492 nm. The concentrations of the compounds when then enzyme activity inhibition rate (%) reached 50% was set as IC50 value. The inhibition rate (%) could be calculated according to the following formula: Inhibition rate (%)=[(A−B)−(C−D)]/(A−B)×100

[3] = tested on: C57BL/KsJ mice; assay: acute oral glucose tolerance test (OGTT) and blood insulin in mice; format: in vivo; conditions: for acute oral glucose tolerance in mice: both 100 mg/kg and 200 mg/kg; for acute oral glucose tolerance in mice, compared with Sitagliptin (10 mg/kg): higher dose (200 mg/kg)
Method: Oral glucose tolerance test (OGTT) method: 8-week old male C57BL/KsJ mice (Shanghai Slac Laboratory Animal Company), 8 for each group, weight of 20±2 g, were fed according to SPF grade operation procedure and fasted for 16 hours prior to experiment. Blood was collected from tail vein of each group of mice prior to experiment. Blood glucose concentrations were measured using Roche ACCU-CHEK glucometer and recorded as time 0. Different concentrations of the compound were intragastric administrated to each administration group of mice, respectively. Equal volume of distilled water was given to control group of mice. The dosage volume was 10 ml/kg. Half an hour after administration, 5 g/kg glucose was intragastric administrated to each group of mice. Blood glucose concentrations of each group of mice were measured and recorded at 20 mins, 40 mins, and 80 mins after the intragastric administration. OGTT curves were recorded. Areas under the curves (AUC) were calibrated with the data in blood glucose of mice to which glucose was not given (calibration group). ONE-WAY-ANOVA was used to compare significant difference between each group (Note: all the experimental methods for acute oral glucose tolerance test in the following activity examples are the same to the experimental method in Example 5, unless otherwise indicated). Blood was collected from tail vein at 20 mins after oral administration of glucose for mice. ELISA (kit was bought from Millipore, USA) was utilized for measuring blood insulin level of mice.

inhibition rate against DDP4 [1] [%] | inhibition at 100 µM [1] [%] | inhibition at 10 µM [2] [%] | inhibition at 50 µM [2] [%] | Compound | acute oral glucose tolerance in mice [3] | acute oral glucose tolerance in mice, compared with Sitagliptin (10 mg/kg) [3]
40.8 | 40.8 ± 3.26 | ~20 | > 50 | O=C(O)C1O[C@@H](OC2C(O)[C@H](O)C(C(=O)O)O[C@H]2Oc2cc(O)c3c(=O)cc(-c4ccc(O)c(O)c4)oc3c2)C(O)C(O)[C@@H]1O (stereo partly drawn) [Compound I, luteolin-7-O-[β-glucuronosyl(1→2)β-glucuronic acid]] | significantly enhance acute oral glucose tolerance | activity comparable to the commercial chemical drug, Sitagliptin
34.1 | 34.1 ± 3.91 | ~20 | > 50 | O=C(O)C1O[C@@H](OC2C(O)[C@H](O)C(C(=O)O)O[C@H]2Oc2cc(O)c3c(=O)cc(-c4ccc(O)cc4)oc3c2)C(O)C(O)[C@@H]1O (stereo partly drawn) [Compound II, apigenin-7-O-[β-glucuronosyl(1→2)β-glucuronic acid]] | significantly enhance acute oral glucose tolerance | activity comparable to the commercial chemical drug, Sitagliptin
